Results published in US9588106B2, “Methods and compositions for measuring cell permeability” (The University of Chicago, priority 2012, dated 2017).

System: HPAEC monolayer
Test: XPerT permeability visualization on biotinylated gelatin coated coverslips (FITC-avidin, VE-cadherin staining)
Assay type: cell-based, human
Details: thrombin 0.2 or 0.3 U/ml 15 min; forskolin 2 μM 30 min; 10× objective; FIG. 4A
Procedure: Human pulmonary artery endothelial cells (HPAEC) were obtained from Lonza (Allendale, N.J.) and cultured in cell growth medium (EGM-2, Lonza) containing 10% fetal bovine serum (FBS). Cell cultures were maintained at 37° C. in a humidified 5% CO2 incubator and used for experiments at passages 5-8. In experiments with agonist stimulation, 10% FBS growth medium was replaced with 2% FBS growth medium for 2 hours prior to experiment. Measurements of transendothelial electrical resistance across a confluent endothelial cell monolayer were performed using the electrical cell-substrate impedance sensing system ECIS-1600 (Applied Biophysics, Troy, N.Y.). Transient transfections with cMyc-tagged RhoA-V14 or Rho kinase-CAT (6-553) were performed using PolyJet transfection reagent (SignaGen, Rockville, Md.) according to the manufacturer's protocol. In brief, HPAEC were seeded on 35 mm diameter cell culture dishes with biotinylated gelatin-treated coverslips at a density of 5×10^5 cells per dish. After 24 hours cells were transfected with 1 μg of plasmid DNA per dish (ratio: 1 μg of DNA per 3 μl of PolyJet). Permeability visualization experiments were performed 24 hours after transfection.
Permeability visualization experiments were performed on 18×18 mm square Rinzle plastic coverslips. The coverslips, placed in 35 mm culture dishes, were coated with biotinylated gelatin as described above. […]

thrombin
FITC fluorescence at cell-cell junction areas, low magnification images: dramatic increase in FITC fluorescence in the intercellular gaps
